Source: PMC3038857, “Using Nuclear Receptor Activity to Stratify Hepatocarcinogens” (PLoS ONE, 2011)
Read-outs that look alike come from different tables or passages of the source.

How the values were obtained:
[1] = target: T1, PPARG (peroxisome proliferator-activated receptor gamma) (Homo sapiens, UniProt P37231); assay: ATG_PPARg_TRANS: Factorial reporter gene assay (HepG2); type: cell-based
T1 construct: expressed in transfected cells; host or cells: HepG2
T1 sequence (P37231 1-505): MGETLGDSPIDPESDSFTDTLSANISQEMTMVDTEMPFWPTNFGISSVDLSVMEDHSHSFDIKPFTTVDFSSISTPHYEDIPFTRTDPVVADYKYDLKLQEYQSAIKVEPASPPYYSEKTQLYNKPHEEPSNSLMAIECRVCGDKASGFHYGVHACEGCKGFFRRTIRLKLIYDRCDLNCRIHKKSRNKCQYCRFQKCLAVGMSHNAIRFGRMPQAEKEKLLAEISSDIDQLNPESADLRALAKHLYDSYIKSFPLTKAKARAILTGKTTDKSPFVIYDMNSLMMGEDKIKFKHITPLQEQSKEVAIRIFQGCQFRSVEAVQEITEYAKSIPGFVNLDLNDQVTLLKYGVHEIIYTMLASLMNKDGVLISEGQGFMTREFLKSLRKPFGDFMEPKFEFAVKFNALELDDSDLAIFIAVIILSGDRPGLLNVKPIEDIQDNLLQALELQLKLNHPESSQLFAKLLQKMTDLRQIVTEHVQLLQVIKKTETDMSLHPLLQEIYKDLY
In short: (§1)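 Each chemical received seven doses, the first at its MTC, then successive three-fold dilutions. Host cells: HepG2 carrying either cis (PXRE, 48 sites) or trans one-hybrid (ERRg, FXR, PPARg; 25 units) reporter libraries.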

PPARg (PPARG) = target: T2, PPARg (PPARG) (Homo sapiens, UniProt P37231); assay: NVS_NR_hPPARg: Human PPARg Fluorescent Ligand (cell-free HTS); type: binding
T2 sequence (P37231 1-505): T1 sequence (P37231 1-505)
From the text: These are a collection of biochemical assays measuring binding constants and enzyme inhibition values. Chemicals were initially screened at a single concentration in duplicate wells at a concentration of 10 [drawing 63] M for cytochrome P-450 assays and 25 [drawing 64] M for all others. […] These assays were run by Caliper Life Sciences (Hanover, MD) under contract to EPA. Short assay descriptions are available at: http://www.caliperls.com/products/contract-research/in-vitro/.
Cell-free HTS Assays: A collection of biochemical assays measuring binding constants and enzyme inhibition values. […] These assays were run by Caliper Life Sciences (Hanover, MD) under contract to EPA. Short assay descriptions are available at http://www.caliperls.com/products/contract-research/in-vitro/. Values for all endpoints were imported into GeneData Screener (Basel, Switzerland) and normalised to solvent controls from the same plate as the tested compounds and expressed as percent of neutral control. Concentration-response curves were fit in GeneData Screener (Basel, Switzerland) Condeseo module using the Hill equation and AC50 values were determined. […] Detailed description of the methods, data and analysis methods for this dataset are described in a separate publication.

PXR (NR1I2) = target: T3, PXR (NR1I2) (Homo sapiens, UniProt O75469); assay: ATG_PXRE_CIS: Factorial reporter gene assay (HepG2); type: cell-based; parameters: endogenous in cells; host or cells: HepG2
T3 sequence (O75469 1-434): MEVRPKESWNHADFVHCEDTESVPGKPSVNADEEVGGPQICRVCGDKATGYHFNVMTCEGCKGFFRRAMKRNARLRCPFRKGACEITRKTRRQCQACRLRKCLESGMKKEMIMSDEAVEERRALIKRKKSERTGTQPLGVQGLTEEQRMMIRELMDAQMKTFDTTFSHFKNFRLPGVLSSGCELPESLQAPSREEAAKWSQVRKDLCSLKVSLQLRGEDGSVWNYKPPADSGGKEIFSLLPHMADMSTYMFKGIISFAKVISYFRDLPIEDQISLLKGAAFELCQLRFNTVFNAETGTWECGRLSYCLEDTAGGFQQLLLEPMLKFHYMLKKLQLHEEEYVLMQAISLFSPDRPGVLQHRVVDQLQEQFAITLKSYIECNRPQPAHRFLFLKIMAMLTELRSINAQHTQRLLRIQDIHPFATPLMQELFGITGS
In short: as §1

PPARa (PPARA) = target: T4, PPARa (PPARA) (Homo sapiens, UniProt Q07869); assay: NCGC_PPARa_Agonist: GAL4 BLAM Reporter gene assay: PPARa; type: cell-based; parameters: expressed in transfected cells; host or cells: HEK293; settings: agonist mode
T4 sequence (Q07869 1-468): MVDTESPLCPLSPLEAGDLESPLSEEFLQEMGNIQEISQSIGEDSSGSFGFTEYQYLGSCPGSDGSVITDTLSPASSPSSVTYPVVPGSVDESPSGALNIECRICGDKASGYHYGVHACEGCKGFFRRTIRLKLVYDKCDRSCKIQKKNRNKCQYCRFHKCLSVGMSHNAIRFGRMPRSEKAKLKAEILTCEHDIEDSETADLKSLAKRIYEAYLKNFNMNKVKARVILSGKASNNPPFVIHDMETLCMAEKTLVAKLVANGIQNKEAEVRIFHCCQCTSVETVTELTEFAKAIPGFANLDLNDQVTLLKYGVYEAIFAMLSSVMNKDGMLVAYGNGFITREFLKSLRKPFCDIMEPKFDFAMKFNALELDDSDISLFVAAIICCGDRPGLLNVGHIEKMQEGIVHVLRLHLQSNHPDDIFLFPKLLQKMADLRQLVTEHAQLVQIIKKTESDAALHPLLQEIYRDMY
Description: These assays measure binding constants and enzyme inhibition values for nuclear receptors. The targets include [drawing 67] , [drawing 68] , [drawing 69] , [drawing 70] , [drawing 71] , [drawing 72] , [drawing 73] , [drawing 74] , [drawing 75] and [drawing 76] . Each of the nuclear receptor targets was measured in agonist mode. Assays were run at the NIH Chemical Genomics Center (Rockville, MD).
Cell-based HTS Assays: These assays measuring binding constants and enzyme inhibition values for nuclear receptors. The targets include AR, ER, FXR, LXR, PPARα, PPARδ, PPARγ, RXRα, RXRβ and PXR. Each of the nuclear receptor targets was measured in both agonist and antagonist mode, but the antagonist data is still undergoing analysis due to possible interference between cytotoxicity and assay activity, so antagonist mode data were not used in the present analysis. Assays were run at the NIH Chemical Genomics Center (Rockville, MD) as part of the Tox21 collaboration. […] The R^2 was required to be ≥0.5. Values where only the highest concentration exceeded 50% activity were excluded to eliminate weak or false positives. Detailed description of the methods, data and analysis methods for this dataset will be presented in a separate publication.

[2] = HepG2, scale not given, looks like -log10 of molar active concentration, 0 = no activity
[3] = scale not given, looks like -log10 of molar active concentration, 0 = no activity

SMILES: CC(C)N1C(=O)c2ccccc2NS1(=O)=O [r37]
- ATG_PPARg_TRANS [1, 2]: 0
- NVS_NR_hPPARg (PPARg (PPARG); [3]): 0
- ATG_PXRE_CIS (PXR (NR1I2); [2]): 4.638
- NCGC_PPARa_Agonist (PPARa (PPARA); [3]): 0

SMILES: CCc1nn(C)c(C(=O)NCc2ccc(C(C)(C)C)cc2)c1Cl [r291]
- ATG_PPARg_TRANS ([1]; HepG2 reporter): 5.31
- ATG_PXRE_CIS (PXR (NR1I2); HepG2 reporter): 5.387

SMILES: CCCCOCN(C(=O)CCl)c1c(CC)cccc1CC [r46]
- ATG_PPARg_TRANS [1, 2]: 5.678
- NVS_NR_hPPARg (PPARg (PPARG); [3]): 0
- ATG_PXRE_CIS (PXR (NR1I2); [2]): 5.721
- NCGC_PPARa_Agonist (PPARa (PPARA); [3]): 0

SMILES: COC(=O)c1ccccc1CS(=O)(=O)NC(=O)Nc1nc(OC)cc(OC)n1 [r33]
- ATG_PPARg_TRANS [1, 2]: 0
- NVS_NR_hPPARg (PPARg (PPARG); [3]): 0
- ATG_PXRE_CIS (PXR (NR1I2); [2]): 4.337
- NCGC_PPARa_Agonist (PPARa (PPARA); [3]): 0

SMILES: CNC(=O)Oc1cccc2ccccc12 [r52]
- ATG_PXRE_CIS (PXR (NR1I2); [2]): 4.42
- NCGC_PPARa_Agonist (PPARa (PPARA); [3]): 0

SMILES: Nc1cnn(-c2ccccc2)c(=O)c1Cl [r56]
- ATG_PPARg_TRANS [1, 2]: 4.409
- NVS_NR_hPPARg (PPARg (PPARG); [3]): 0
- ATG_PXRE_CIS (PXR (NR1I2); [2]): 0
- NCGC_PPARa_Agonist (PPARa (PPARA); [3]): 0

SMILES: CC(C)=CC1C(C(=O)OCc2coc(Cc3ccccc3)c2)C1(C)C (centres unmarked) [r280]
- ATG_PPARg_TRANS ([1]; HepG2 reporter): 4.495
- NVS_NR_hPPARg (PPARg (PPARG)): 4.616
- ATG_PXRE_CIS (PXR (NR1I2); HepG2 reporter): 4.886

SMILES: CC(C)(c1ccc(O)cc1)c1ccc(O)cc1 [r40]
- ATG_PPARg_TRANS [1, 2]: 4.569
- NVS_NR_hPPARg (PPARg (PPARG); [3]): 0
- ATG_PXRE_CIS (PXR (NR1I2); [2]): 4.886
- NCGC_PPARa_Agonist (PPARa (PPARA); [3]): 0

SMILES: CCc1ccc(C(=O)NN(C(=O)c2cc(C)cc(C)c2)C(C)(C)C)cc1 [r290]
- ATG_PPARg_TRANS ([1]; HepG2 reporter): 5.201
- ATG_PXRE_CIS (PXR (NR1I2); HepG2 reporter): 5.469

SMILES: CCCC1COC(Cn2cncn2)(c2ccc(Cl)cc2Cl)O1 (centres unmarked) [r262]
- ATG_PXRE_CIS (PXR (NR1I2); HepG2): 5.041

SMILES: Cc1c(COC(=O)C2C(/C=C(\Cl)C(F)(F)F)C2(C)C)cccc1-c1ccccc1 (centres unmarked) [r39]
- ATG_PPARg_TRANS [1, 2]: 0
- NVS_NR_hPPARg (PPARg (PPARG); [3]): 0
- ATG_PXRE_CIS (PXR (NR1I2); [2]): 4.854
- NCGC_PPARa_Agonist (PPARa (PPARA); [3]): 0

SMILES: CCCN(CCC)c1c([N+](=O)[O-])cc(C(F)(F)F)c(N)c1[N+](=O)[O-] [r252]
- ATG_PXRE_CIS (PXR (NR1I2); HepG2): 5.585
- NCGC_PPARa_Agonist (PPARa (PPARA)): 4.688

SMILES: CCC(C)n1c(=O)[nH]c(C)c(Br)c1=O (centres unmarked) [r43]
- ATG_PPARg_TRANS [1, 2]: 0
- NVS_NR_hPPARg (PPARg (PPARG); [3]): 0
- ATG_PXRE_CIS (PXR (NR1I2); [2]): 4.347
- NCGC_PPARa_Agonist (PPARa (PPARA); [3]): 0

SMILES: COc1cc(Cl)c(OC)cc1Cl [r57]
- ATG_PPARg_TRANS [1, 2]: 0
- NVS_NR_hPPARg (PPARg (PPARG); [3]): 0
- ATG_PXRE_CIS (PXR (NR1I2); [2]): 4.42
- NCGC_PPARa_Agonist (PPARa (PPARA); [3]): 0

SMILES: COc1nc(C)nc(NC(=O)NS(=O)(=O)c2ccccc2Cl)n1 [r62]
- ATG_PPARg_TRANS [1, 2]: 0
- NVS_NR_hPPARg (PPARg (PPARG); [3]): 0
- ATG_PXRE_CIS (PXR (NR1I2); [2]): 4.495
- NCGC_PPARa_Agonist (PPARa (PPARA); [3]): 0

SMILES: COc1cccc(C(=O)NN(C(=O)c2cc(C)cc(C)c2)C(C)(C)C)c1C [row 202]
- ATG_PXRE_CIS (PXR (NR1I2); HepG2): 5.886

SMILES: CCOC(=O)C(Cl)Cc1cc(-n2nc(C)n(C(F)F)c2=O)c(F)cc1Cl (centres unmarked) [r54]
- ATG_PPARg_TRANS [1, 2]: 4.319
- NVS_NR_hPPARg (PPARg (PPARG); [3]): 0
- ATG_PXRE_CIS (PXR (NR1I2); [2]): 4.328
- NCGC_PPARa_Agonist (PPARa (PPARA); [3]): 0
